Data as given in paper PMC8296573, “Synthesis and Biological Evaluation of Fingolimod Derivatives as Antibacterial Agents” (ACS Omega, 2021).
In brackets after ≈: the same amount, converted by molar mass. Read-outs that look alike come from different tables or passages of the source.

How the values were obtained:
S. aureus P2 = test: Antibacterial activity, pre-exposure; format: cell-based, Staphylococcus aureus; conditions: for Average inhibition %, biofilms biomass / Average inhibition %, biofilms viability / Average inhibition %, planktonic cells turbidity / Average inhibition %, planktonic cells viability / inhibition at 5 µM / inhibition at 10 µM / inhibition at 15 µM / inhibition at 25 µM: S. aureus P2, pre-exposure, ± SD
Procedure, shortened: (§1)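 Pre-exposure format: compound and bacterial culture co-incubated 18 h, 37 °C, aerobic, 220 rpm. Planktonic: turbidity (OD) plus resazurin viability, 20 μM final. Biofilm: PBS wash, 20 μM resazurin, then ethanol fixation and crystal violet staining, A595.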

S. aureus ATCC 12598 = test: Antibacterial activity, pre-exposure; format: cell-based, Staphylococcus aureus; conditions: for Average inhibition %, biofilms biomass / Average inhibition %, biofilms viability / Average inhibition %, planktonic cells turbidity / Average inhibition %, planktonic cells viability / inhibition at 5 µM / inhibition at 10 µM / inhibition at 15 µM / inhibition at 25 µM: S. aureus ATCC 12598, pre-exposure, ± SD; for inhibition at 5 µM / inhibition at 10 µM / inhibition at 15 µM / inhibition at 25 µM / MIC: Staphylococcus aureus, ATCC12598
Procedure, shortened: as §1

[1] = Colloidal aggregation by nephelometry; format: physicochemical; conditions: 25 µM
Procedure: 3. Aggregation data (Figure S3)
Potential colloidal aggregation in biological assays was studied at five concentrations (5 µM, 10 µM, 15 µM,
25 µM, 50 µM). The original assay conditions were simulated, and the light scattering of potential aggregates
in the mixture was studied by nephelometric methods using Nepheloskan Ascent (Labsystems, Finland).
Aggregation of the blank and compounds fingolimod, 43, 45, 55, 62, 79 and 82 were measured as triplicates
from one independent experiment at 400 V and at room temperature.
formation at 50 µM. […] However, at 15
µM, 10 µM and 5 µM, the obtained values were close to those observed by blank, therefore indicating only
minor or no detectable aggregation.
Figure S3: Aggregation data for fingolimod and compounds 43, 45, 55, 62, 79, 82. RNU = relative nephelometric unit.
The data are shown as the mean ± SD and normalized to the blank.
(1 picture or pasted object on this page, not shown here)

[2] = Cytotoxicity, resazurin staining assay; format: cell-based, human; conditions: human, 24 h incubation
Procedure: The cytotoxicity of the compounds was assessed on the three different human cell lines, A549, HEp-2, and HL-60, using the redox-based resazurin staining assay. The cells were seeded in clear 96-well plates at a density of 1 × 10^4 cells per well in a volume of 200 μL per well. The adherent cells were let to attach for 24 h before changing the media and adding the compounds (final concentration of 0.25% DMSO). HL-60 were counted and added to the plates at a density of 1 × 10^4 cells per well in a volume of 200 μL directly with the compounds. Untreated cells were used as negative controls, and cells treated with 1% TritonX-100 (Sigma-Aldrich, St. Louis, MO) were used as positive controls for cytotoxicity. The cells were incubated with the compounds for 24 h.
For the resazurin assay, the media was first removed, and the adherent cells were washed once with PBS. Then, 200 μL of 20 μM resazurin was added per well and cells were incubated for two more hours before the measurement of fluorescence, as mentioned earlier. For HL-60, 10 μL of 400 μM resazurin was added directly to the wells and the cells were incubated for an additional 4 h before the measurement of fluorescence.

## 2-Amino-2-(4-decylbenzyl)propane-1,3-diol [Compound 45]
S. aureus P2; 5 µM
  Average inhibition %, biofilms biomass: 74.6 ± 24.7%
  Average inhibition %, biofilms viability: 69.6 ± 37.8%
  Average inhibition %, planktonic cells turbidity: 74.4 ± 34.2%
  Average inhibition %, planktonic cells viability: 70 ± 36.1%
S. aureus P2; 10 µM
  Average inhibition %, biofilms biomass: 97.6 ± 0.3%
  Average inhibition %, biofilms viability: 99.6 ± 0%
  Average inhibition %, planktonic cells turbidity: 99.4 ± 0.1%
  Average inhibition %, planktonic cells viability: 99.8 ± 0%
S. aureus P2; 15 µM
  Average inhibition %, biofilms biomass: 96.9 ± 1.4%
  Average inhibition %, biofilms viability: 99.6 ± 0%
  Average inhibition %, planktonic cells turbidity: 99.1 ± 0.1%
  Average inhibition %, planktonic cells viability: 99.7 ± 0.1%
S. aureus P2; 25 µM
  Average inhibition %, biofilms biomass: 97.6 ± 0.3%
  Average inhibition %, biofilms viability: 99.6 ± 0%
  Average inhibition %, planktonic cells turbidity: 98.6 ± 0.1%
  Average inhibition %, planktonic cells viability: 99.6 ± 0.1%
S. aureus P2; pre-exposure, 18 h
  MIC S. aureus P2: 5 to 10 µM
S. aureus ATCC 12598; 5 µM
  Average inhibition %, biofilms biomass: 75.4 ± 28.1%
  Average inhibition %, biofilms viability: 83.6 ± 38.2%
  Average inhibition %, planktonic cells turbidity: 89.3 ± 24.1%
  Average inhibition %, planktonic cells viability: 83.4 ± 39.6%
S. aureus ATCC 12598; 10 µM
  Average inhibition %, biofilms biomass: 95.3 ± 0.4%
  Average inhibition %, biofilms viability: 99.6 ± 0.1%
  Average inhibition %, planktonic cells turbidity: 99.4 ± 0%
  Average inhibition %, planktonic cells viability: 99.8 ± 0%
S. aureus ATCC 12598; 15 µM
  Average inhibition %, biofilms biomass: 94.4 ± 0.3%
  Average inhibition %, biofilms viability: 99.6 ± 0.1%
  Average inhibition %, planktonic cells turbidity: 99.1 ± 0%
  Average inhibition %, planktonic cells viability: 99.8 ± 0%
S. aureus ATCC 12598; 25 µM
  Average inhibition %, biofilms biomass: 94.9 ± 1%
  Average inhibition %, biofilms viability: 99.6 ± 0.1%
  Average inhibition %, planktonic cells turbidity: 98.3 ± 0.2%
  Average inhibition %, planktonic cells viability: 99.8 ± 0.1%
S. aureus ATCC 12598; pre-exposure, 18 h
  MIC S. aureus ATCC 12598: 5 to 10 µM
[1]
  Aggregation (nephelometry): potential aggregation

## CCCCCCCCc1cccc(CCC(N)(CO)CO)c1 [Compound 43, 2-Amino-2-(3-octylphenethyl)propane-1,3-diol]
[1]
  Aggregation (nephelometry): potential aggregation
[2]; A549 cells
  CC50 at 24 h: > 40 µM
[2]; HEp-2 cells
  CC50 at 24 h: > 40 µM
[2]; HL-60 cells
  CC50 at 24 h: 23.4 ± 3.2 µM

## CCCCCCCCc1ccc2cc(CC(N)(CO)CO)ccc2c1 [Compound 79, 2-Amino-2-[(6-octylnaphthalen-2-yl)methyl]propane-1,3-diol]
S. aureus P2; 5 µM
  Average inhibition %, biofilms viability: 49.4 ± 34.5%
  Average inhibition %, planktonic cells viability: 45.3 ± 32.9%
S. aureus P2; 10 µM
  Average inhibition %, biofilms viability: 99.4 ± 0%
  Average inhibition %, planktonic cells viability: 99.6 ± 0%
S. aureus P2; 15 µM
  Average inhibition %, biofilms viability: 99.4 ± 0%
  Average inhibition %, planktonic cells viability: 99.6 ± 0.1%
S. aureus P2; 25 µM
  Average inhibition %, biofilms viability: 99.5 ± 0%
  Average inhibition %, planktonic cells viability: 99.6 ± 0.1%
S. aureus P2; Staphylococcus aureus, P2, pre-exposure, 18 h
  MIC: 10 µM (≈ 3.44 µg/mL)
S. aureus P2; Staphylococcus aureus, 5 µM, read-out: Average inhibition %, biofilms biomass
  inhibition at 5 µM: 63.6 ± 23.6%
S. aureus P2; Staphylococcus aureus, 5 µM, read-out: Average inhibition %, planktonic cells turbidity
  inhibition at 5 µM: 45.4 ± 35.4%
S. aureus P2; Staphylococcus aureus, 10 µM, read-out: Average inhibition %, biofilms biomass
  inhibition at 10 µM: 95.8 ± 2.2%
S. aureus P2; Staphylococcus aureus, 10 µM, read-out: Average inhibition %, planktonic cells turbidity
  inhibition at 10 µM: 99.5%
S. aureus P2; Staphylococcus aureus, 15 µM, read-out: Average inhibition %, biofilms biomass
  inhibition at 15 µM: 97.3 ± 0.5%
S. aureus P2; Staphylococcus aureus, 15 µM, read-out: Average inhibition %, planktonic cells turbidity
  inhibition at 15 µM: 99.4 ± 0.1%
S. aureus P2; Staphylococcus aureus, 25 µM, read-out: Average inhibition %, biofilms biomass
  inhibition at 25 µM: 96.4 ± 1.3%
S. aureus P2; Staphylococcus aureus, 25 µM, read-out: Average inhibition %, planktonic cells turbidity
  inhibition at 25 µM: 99.1 ± 0.2%
S. aureus ATCC 12598; 5 µM
  Average inhibition %, biofilms viability: 65.9 ± 50.1%
  Average inhibition %, planktonic cells viability: 69.3 ± 47.1%
S. aureus ATCC 12598; 10 µM
  Average inhibition %, biofilms viability: 99.6 ± 0.1%
  Average inhibition %, planktonic cells viability: 99.8 ± 0.1%
S. aureus ATCC 12598; 15 µM
  Average inhibition %, biofilms viability: 99.5 ± 0%
  Average inhibition %, planktonic cells viability: 99.6 ± 0.1%
S. aureus ATCC 12598; 25 µM
  Average inhibition %, biofilms viability: 99.5 ± 0.1%
  Average inhibition %, planktonic cells viability: 99.6 ± 0.1%
S. aureus ATCC 12598; 5 µM, read-out: Average inhibition %, biofilms biomass
  inhibition at 5 µM: 63.5 ± 41.5%
S. aureus ATCC 12598; 5 µM, read-out: Average inhibition %, planktonic cells turbidity
  inhibition at 5 µM: 82.3 ± 26.8%
S. aureus ATCC 12598; 10 µM, read-out: Average inhibition %, biofilms biomass
  inhibition at 10 µM: 94.7 ± 0.2%
S. aureus ATCC 12598; 10 µM, read-out: Average inhibition %, planktonic cells turbidity
  inhibition at 10 µM: 99.6%
S. aureus ATCC 12598; 15 µM, read-out: Average inhibition %, biofilms biomass
  inhibition at 15 µM: 94.6 ± 0.6%
S. aureus ATCC 12598; 15 µM, read-out: Average inhibition %, planktonic cells turbidity
  inhibition at 15 µM: 99.4 ± 0.1%
S. aureus ATCC 12598; 25 µM, read-out: Average inhibition %, biofilms biomass
  inhibition at 25 µM: 95 ± 1%
S. aureus ATCC 12598; 25 µM, read-out: Average inhibition %, planktonic cells turbidity
  inhibition at 25 µM: 99.2 ± 0.3%
S. aureus ATCC 12598; S. aureus ATCC 12598 and P2, read-out: MIC against the clinical strains of S. aureus
  MIC: 5 to 10 µM (≈ 1.72 to 3.44 µg/mL)
S. aureus ATCC 12598; pre-exposure, 18 h, read-out: MIC S. aureus ATCC 12598
  MIC: 5 to 10 µM (≈ 1.72 to 3.44 µg/mL)
[1]
  Aggregation (nephelometry): potential aggregation
[2]; A549 cells
  CC50 at 24 h: > 40 µM
[2]; HEp-2 cells
  CC50 at 24 h: > 40 µM
[2]; HL-60 cells
  CC50 at 24 h: 26.9 ± 1.6 µM
